Common to all, as to assay: growth of human tumour cells (NCI), 48 h
In test [1] the test system is A549.
The test system of test [2] is BT-549.
For test [3], the system named is COLO 205.
Test [4] deals with DU-145.
The test system of test [5] is HCT-15.
Test [6] relates to HL-60.
In test [7] the test system is HOP-92.
In test [8] the test system is M14.
Test [9] concerns MDA-MB-435.
The subject of test [10] is NCI-H226.
The subject of test [11] is NCI-H522.
Test [12] deals with OVCAR-5.
Test [13] relates to OVCAR-8.
The subject of test [14] is PC-3.
For test [15], the system named is RPMI-8226.
Test [16] has as its system RXF 393.
Test [17] relates to SF-268.
The subject of test [18] is UACC-257.
Test [19] has as its system UO-31.
Test [20] deals with MDA-N.

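Five concentrations, 48 hours, 96-well plates. Here, GI50 denotes the concentration required for 50% inhibition of growth.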 The source made the active and inactive calls. Rule as the data show it: active = GI50 up to about 1.1 µM and inactive = higher.

With `COC(=O)c1c[nH]c2c1-c1cc(C(=O)OCc3ccccc3)n(S(=O)(=O)c3ccc(C)cc3)c1C(=O)C2=O`, the GI50 in test [1] was 0.716 µM (active); in test [2], 0.19 µM (active); in [3] it was 0.805 µM (active); in [4] it was 0.154 µM (active); in test [5], 0.194 µM; in test [6], 0.144 µM (active). Further, the GI50 was 0.27 µM (active) in test [7]; 0.155 µM (active) in test [8]; 0.0318 µM (active) in test [9]; 0.729 µM (active) in [10]; 0.207 µM (active) in test [11]; 1.56 µM (inactive) in [12]. Besides, the GI50 in test [13] is 0.237 µM (active); in test [14], 0.283 µM (active); in test [15], 0.362 µM (active); in [16] it was 0.214 µM (active); in test [17], 0.234 µM (active); in [18] it was 0.156 µM (active). Also, in test [19], the GI50 is 0.327 µM (active).

As to `C=C1C(=O)O[C@@H]2/C=C(C)/C=C\[C@@H]3O[C@@]3(C)C[C@@H](O)C12` (stereo not given in full), the GI50 in test [1] was 47.5 µM (inactive); in test [3], 5.2 µM (inactive); in [4] it was 3.63 µM (inactive); in test [5] it was 6.27 µM; in test [6], 2.54 µM (inactive); in test [7], 5.98 µM (inactive). Besides, the GI50 in test [8] was 18.3 µM (inactive); in test [9] it was 18 µM (inactive); in [20], 13.2 µM (inactive); in [10] it was 9.1 µM (inactive); in test [11], 4.23 µM (inactive); in test [12], 33.2 µM (inactive). Also, the GI50 in test [13] was 17.4 µM (inactive); in test [14], 24.5 µM (inactive); in test [15] it was 3.74 µM (inactive); in [16], 18.7 µM (inactive); in [17], 26.4 µM (inactive); in test [18] it was 11.8 µM (inactive). For the same compound, the GI50 in test [19] is 12.4 µM (inactive).

Regarding `O=C1/C(=C\c2ccc(F)cc2)CCOc2c1ccc1ccccc21`, the GI50 was 23.4 µM (inactive) in test [1]; 25.6 µM (inactive) in [2]; 19 µM (inactive) in test [3]; 31 µM (inactive) in [4]; 11.2 µM in test [5]; 14.9 µM (inactive) in test [6]. In addition, the GI50 was 24.9 µM (inactive) in test [7]; 26.2 µM (inactive) in test [8]; 26.8 µM (inactive) in test [9]; 34 µM (inactive) in test [11]; 18.5 µM (inactive) in test [12]; 12.7 µM (inactive) in test [13]. The GI50 is 33 µM (inactive) in test [14]; 3.3 µM (inactive) in [15]; 13.4 µM (inactive) in test [16]; 23.4 µM (inactive) in [17]; 19.5 µM (inactive) in [18]; > 55.2 µM (inactive) in test [19].

As to `O=C(CSCC(=O)N/N=C/c1cccs1)N/N=C/c1cccs1`, the GI50 in test [1] was > 100 µM (inactive); in test [2], 43.2 µM (inactive); in test [4] it was 54.3 µM (inactive); in [5] it was over 100 µM; in [6], > 100 µM (inactive); in test [7], 27.2 µM (inactive). Besides, the GI50 in test [8] is > 100 µM (inactive); in test [9], > 100 µM (inactive); in [10] it was 37.2 µM (inactive); in [11], 38.6 µM (inactive); in test [12] it was > 100 µM (inactive); in test [13] it was 37 µM (inactive). For the same compound, the GI50 in [14] is 30.6 µM (inactive); in test [15], 42.4 µM (inactive); in [16], 74.3 µM (inactive); in test [17], 72.9 µM (inactive); in test [18] it was > 100 µM (inactive); in test [19] it was 48.3 µM (inactive).

`O=Cc1ccc(-c2ccc(-c3ccc(CO)s3)o2)s1`: the GI50 was 14.8 µM (inactive) in test [1]; 6.24 µM (inactive) in test [2]; 12.9 µM (inactive) in [3]; 11.5 µM (inactive) in [4]; 24.4 µM in test [5]; 3.85 µM (inactive) in test [6]. Moreover, the GI50 is 17.5 µM (inactive) in test [7]; 20.4 µM (inactive) in test [8]; 8.32 µM (inactive) in test [9]; 0.0681 µM (active) in test [10]; 15.7 µM (inactive) in [11]; 7.28 µM (inactive) in [13]. Further, the GI50 in [14] was 28.3 µM (inactive); in test [15], 1.54 µM (inactive); in test [16] it was 5.74 µM (inactive); in test [17] it was 18.6 µM (inactive); in [18], 0.364 µM (active); in test [19], 15.6 µM (inactive).

As to `Oc1ccc(-c2csc(N/N=C3\NC/C(=C/c4ccc5c(c4)OCO5)S3)n2)cc1O`, the GI50 in [1] is 45.5 µM (inactive); in test [3], 29.1 µM (inactive); in test [4], 26.7 µM (inactive); in test [5] it was 19.1 µM; in test [6] it was > 10 µM (inactive); in test [7] it was 38.5 µM (inactive). For the same compound, the GI50 in test [8] was 11.2 µM (inactive); in [9], 3.21 µM (inactive); in test [20] it was 3.4 µM (inactive); in test [10] it was 43.5 µM (inactive); in [12] it was 47.2 µM (inactive); in test [13], 29.2 µM (inactive). Also, the GI50 was 26.4 µM (inactive) in [14], 14.6 µM (inactive) in test [18] and 11.2 µM (inactive) in [19].

With `COC(=O)c1ccccc1/C=C1\Cc2c(C)cc(C)cc2C1=O`, the GI50 in test [1] was > 100 µM (inactive); in [2], > 100 µM (inactive); in test [5], over 100 µM; in [6], > 100 µM (inactive); in test [7] it was > 100 µM (inactive); in [8], > 100 µM (inactive). The GI50 in test [20], in [10], in [11], in [13], in test [14] and in test [15] was > 100 µM (inactive) in each case. Also, the GI50 in test [16], in [17], in test [18] and in test [19] was > 100 µM (inactive) each time.

In the case of `CN(C)NC1=NS(=O)(=O)c2cc3c(cc2S1)N(N(C)C)C(=O)c1cc2c(cc1N(N(C)C)C3=O)SC(NN(C)C)=NS2(=O)=O`, the GI50 in [1] is > 10 µM (inactive); in test [2], > 10 µM (inactive); in [3], > 10 µM (inactive); in [4] it was > 10 µM (inactive); in [5] it was over 10 µM; in test [6], > 10 µM (inactive). The GI50 in test [7], in [8], in test [10], in test [11], in test [12] and in [13] was > 10 µM (inactive) throughout. For the same compound, the GI50 in test [14], in test [15], in [16], in test [17], in test [18] and in [19] was > 10 µM (inactive) in each case.

For the compound `COc1ccc(NC(=O)NNS(=O)(=O)c2ccc(C)cc2)cc1`, the GI50 in test [1] is > 100 µM (inactive); in test [3], > 100 µM (inactive); in test [4] it was > 100 µM (inactive); in test [5], over 100 µM; in [6] it was > 100 µM (inactive); in test [7] it was > 100 µM (inactive). Moreover, the GI50 in [8] is > 100 µM (inactive); in test [9], 30.4 µM (inactive); in [20], 32.7 µM (inactive); in test [10], > 100 µM (inactive); in [11], 45.1 µM (inactive); in [12] it was > 100 µM (inactive). Also, the GI50 is > 100 µM (inactive) in [13]; 71 µM (inactive) in test [14]; > 100 µM (inactive) in test [15]; > 100 µM (inactive) in test [16]; > 100 µM (inactive) in test [17]; > 100 µM (inactive) in test [18]. For the same compound, the GI50 in test [19] is > 100 µM (inactive).

On to `CC(=O)NC1C(OCc2ccccc2)OC(CO)C(O)C1OC(C)C(=O)NC(C)C(=O)N[C@@H](CCC(=O)OCCCNC1c2ccccc2Nc2cccc([N+](=O)[O-])c21)C(N)=O` (stereo not given in full), for which the GI50 was < 0.01 µM (active) in test [1]; < 0.01 µM (active) in test [3]; 0.0314 µM (active) in test [4]; 0.0028 µM in [5]; < 0.0117 µM (active) in test [6]; < 0.01 µM (active) in [7]. The GI50 in test [8] was < 0.01 µM (active); in [9], 0.0157 µM (active); in [20] it was 0.0152 µM (active); in [11] it was < 0.01 µM (active); in [12] it was 0.0223 µM (active); in test [13], < 0.01 µM (active). Moreover, the GI50 in test [14] was 0.0266 µM (active); in test [15], < 0.01 µM (active); in test [16], 0.0141 µM (active); in test [17], < 0.01 µM (active); in test [18], 0.0123 µM (active); in test [19], < 0.01 µM (active).

As to `O=c1c(O)c(-c2ccc(O)cc2O)oc2cc(O)cc(O)c12` [MORIN], the GI50 in [1] is > 100 µM (inactive); in test [3], > 100 µM (inactive); in test [4], > 100 µM (inactive); in test [5] it was over 100 µM; in test [6], > 100 µM (inactive); in [7], > 100 µM (inactive). Further, the GI50 is > 100 µM (inactive) in test [8]; > 100 µM (inactive) in test [9]; > 100 µM (inactive) in test [20]; > 100 µM (inactive) in test [10]; > 10 µM (inactive) in test [11]; > 100 µM (inactive) in [12]. In addition, the GI50 in [13], in test [14], in test [17], in [18] and in test [19] was > 100 µM (inactive) in each case.

(Values after ChEMBL document CHEMBL1201862, “PubChem BioAssay data set” (2004).)
